Measured values: the NIST ThermoML archive (doi:10.1021/je500669y)

Assay: xn = mol fraction of the nth substance listed
Settings: Gas, isochoric method

F/C=C/C(F)(F)F [trans-1,3,3,3-tetrafluoropropene] + N#N
Settings | specific volume [m3/kg]
263.05 K, 383.1 kPa, x2 = 0.75 | 0.114
263.16 K, 622.6 kPa, x2 = 0.746 | 0.069
273.12 K, 398.4 kPa, x2 = 0.75 | 0.114
273.13 K, 648.5 kPa, x2 = 0.746 | 0.069
273.19 K, 464.3 kPa, x2 = 0.5 | 0.066
283.07 K, 291.8 kPa, x2 = 0.495 | 0.11
283.1 K, 413.5 kPa, x2 = 0.75 | 0.114
283.1 K, 673.7 kPa, x2 = 0.746 | 0.069
283.12 K, 485.7 kPa, x2 = 0.5 | 0.066
293.08 K, 302.8 kPa, x2 = 0.495 | 0.11
293.09 K, 699 kPa, x2 = 0.746 | 0.069
293.11 K, 506.5 kPa, x2 = 0.5 | 0.066
293.13 K, 428.7 kPa, x2 = 0.75 | 0.114
303.05 K, 313.9 kPa, x2 = 0.495 | 0.11
303.16 K, 525.9 kPa, x2 = 0.5 | 0.066
303.17 K, 443.8 kPa, x2 = 0.75 | 0.114
303.18 K, 196.3 kPa, x2 = 0.254 | 0.136
303.19 K, 381.3 kPa, x2 = 0.25 | 0.069
303.35 K, 724.8 kPa, x2 = 0.746 | 0.069
313.14 K, 203.2 kPa, x2 = 0.254 | 0.136
313.17 K, 396.1 kPa, x2 = 0.25 | 0.069
313.17 K, 545.2 kPa, x2 = 0.5 | 0.066
313.18 K, 324.5 kPa, x2 = 0.495 | 0.11
313.18 K, 458.8 kPa, x2 = 0.75 | 0.114
313.2 K, 749.1 kPa, x2 = 0.746 | 0.069
323.13 K, 209.9 kPa, x2 = 0.254 | 0.136
323.15 K, 410.2 kPa, x2 = 0.25 | 0.069
323.16 K, 473.2 kPa, x2 = 0.75 | 0.114
323.17 K, 335.3 kPa, x2 = 0.495 | 0.11
323.17 K, 564 kPa, x2 = 0.5 | 0.066
323.17 K, 773.9 kPa, x2 = 0.746 | 0.069
333.16 K, 423.9 kPa, x2 = 0.25 | 0.069
333.17 K, 582.8 kPa, x2 = 0.5 | 0.066
333.17 K, 799.4 kPa, x2 = 0.746 | 0.069
333.18 K, 346.1 kPa, x2 = 0.495 | 0.11
333.19 K, 488.7 kPa, x2 = 0.75 | 0.114
333.34 K, 216.7 kPa, x2 = 0.254 | 0.136
343.11 K, 601.4 kPa, x2 = 0.5 | 0.066
343.12 K, 223.3 kPa, x2 = 0.254 | 0.136
343.12 K, 356.8 kPa, x2 = 0.495 | 0.11
343.13 K, 823.9 kPa, x2 = 0.746 | 0.069
343.14 K, 438.2 kPa, x2 = 0.25 | 0.069
343.14 K, 503.4 kPa, x2 = 0.75 | 0.114
353.05 K, 451.9 kPa, x2 = 0.25 | 0.069
353.08 K, 229.5 kPa, x2 = 0.254 | 0.136
353.1 K, 619.5 kPa, x2 = 0.5 | 0.066
353.11 K, 367.5 kPa, x2 = 0.495 | 0.111
353.13 K, 518.1 kPa, x2 = 0.75 | 0.114
353.13 K, 848.5 kPa, x2 = 0.746 | 0.069
363.06 K, 236.3 kPa, x2 = 0.254 | 0.136
363.1 K, 378.2 kPa, x2 = 0.495 | 0.111
363.1 K, 465.8 kPa, x2 = 0.25 | 0.069
363.1 K, 872.9 kPa, x2 = 0.746 | 0.069
363.12 K, 638.7 kPa, x2 = 0.5 | 0.066
363.25 K, 533.3 kPa, x2 = 0.75 | 0.114
373 K, 242.6 kPa, x2 = 0.254 | 0.136
373.07 K, 547.3 kPa, x2 = 0.75 | 0.114
373.09 K, 389.2 kPa, x2 = 0.495 | 0.111
373.09 K, 657 kPa, x2 = 0.5 | 0.066
373.1 K, 479.5 kPa, x2 = 0.25 | 0.069
373.16 K, 897.7 kPa, x2 = 0.746 | 0.069
383.05 K, 675.5 kPa, x2 = 0.5 | 0.066
383.06 K, 494.4 kPa, x2 = 0.25 | 0.069
383.08 K, 922.8 kPa, x2 = 0.746 | 0.069
383.09 K, 399.9 kPa, x2 = 0.495 | 0.111
383.09 K, 562.6 kPa, x2 = 0.75 | 0.114
383.26 K, 249.6 kPa, x2 = 0.254 | 0.136
393.05 K, 508.1 kPa, x2 = 0.25 | 0.069
393.06 K, 577.5 kPa, x2 = 0.75 | 0.114
393.06 K, 694 kPa, x2 = 0.5 | 0.066
393.08 K, 410.6 kPa, x2 = 0.495 | 0.111
393.13 K, 947.3 kPa, x2 = 0.746 | 0.069
393.14 K, 256.3 kPa, x2 = 0.254 | 0.136
402.99 K, 421.1 kPa, x2 = 0.495 | 0.111
403.04 K, 521.2 kPa, x2 = 0.25 | 0.069
403.04 K, 592.5 kPa, x2 = 0.75 | 0.114
403.05 K, 712.5 kPa, x2 = 0.5 | 0.066
403.1 K, 971.7 kPa, x2 = 0.746 | 0.069
403.14 K, 262.9 kPa, x2 = 0.254 | 0.137
413 K, 432.1 kPa, x2 = 0.495 | 0.111
413.01 K, 535.2 kPa, x2 = 0.25 | 0.069
413.04 K, 995.8 kPa, x2 = 0.746 | 0.069
413.06 K, 607.4 kPa, x2 = 0.75 | 0.114
413.1 K, 731 kPa, x2 = 0.5 | 0.066
413.13 K, 269.4 kPa, x2 = 0.254 | 0.137
